In ChEMBL document CHEMBL2384969, “Discovery and Optimization of Potent GPR40 Full Agonists Containing Tricyclic Spirocycles” (ACS Med Chem Lett, 2013):
One block for each compound: values may come before it. Activity calls are given as the source filed them. No cut-off for these calls is given here.

Key:
[1] = target: T1, Free fatty acid receptor 1 (Homo sapiens, UniProt O14842); assay: Agonist activity at human FFA1 receptor expressed in CHO cell membranes after 4 hrs by aequorin bioluminescence assay; format: cell-based
[2] = target: T1, Free fatty acid receptor 1; assay: Agonist activity at human FFA1 receptor expressed in CHO cell membranes after 4 hrs by aequorin bioluminescence assay relative to AM-1638; format: cell-based
[3] = target: T2, Gastrin/cholecystokinin type B receptor (Homo sapiens) (UniProt P32239); assay: Inhibition of human CCK2 receptor at 10 uM relative to control
T2 sequence (whole entry): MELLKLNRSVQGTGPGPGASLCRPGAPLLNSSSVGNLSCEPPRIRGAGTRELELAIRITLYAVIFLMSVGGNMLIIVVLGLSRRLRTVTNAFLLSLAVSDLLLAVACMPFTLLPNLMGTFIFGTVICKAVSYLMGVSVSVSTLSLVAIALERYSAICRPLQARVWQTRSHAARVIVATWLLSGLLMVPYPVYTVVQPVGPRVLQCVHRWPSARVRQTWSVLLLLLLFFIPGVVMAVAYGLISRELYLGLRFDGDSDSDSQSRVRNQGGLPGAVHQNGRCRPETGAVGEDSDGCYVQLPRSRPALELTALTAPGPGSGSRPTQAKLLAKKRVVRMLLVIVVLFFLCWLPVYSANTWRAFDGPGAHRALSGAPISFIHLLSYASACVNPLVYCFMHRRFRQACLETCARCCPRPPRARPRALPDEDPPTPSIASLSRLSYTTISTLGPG

[4] = Oral bioavailability in Sprague-Dawley rat at 2 mg/kg; format: ADME, organism-based; conditions: in vivo
[5] = target: Histamine H4 receptor (Homo sapiens) (UniProt Q9H3N8); assay: Inhibition of human histamine H4 receptor at 10 uM relative to control
[6] = target: Kappa-type opioid receptor (Rattus norvegicus) (UniProt P34975); assay: Inhibition of rat kappa opioid receptor at 10 uM relative to control
[7] = Volume of distribution at steady state in cynomolgus monkey at 0.5 mg/kg, iv; format: ADME, organism-based, Macaca fascicularis; set-up: dose 0.5 mg/kg, route intravenous; conditions: in vivo, read-out: Vdss
[8] = target: T3, Adenosine receptor A1 (Homo sapiens) (UniProt P30542); assay: Inhibition of human adenosine A1 receptor at 10 uM relative to control
T3 sequence (whole entry): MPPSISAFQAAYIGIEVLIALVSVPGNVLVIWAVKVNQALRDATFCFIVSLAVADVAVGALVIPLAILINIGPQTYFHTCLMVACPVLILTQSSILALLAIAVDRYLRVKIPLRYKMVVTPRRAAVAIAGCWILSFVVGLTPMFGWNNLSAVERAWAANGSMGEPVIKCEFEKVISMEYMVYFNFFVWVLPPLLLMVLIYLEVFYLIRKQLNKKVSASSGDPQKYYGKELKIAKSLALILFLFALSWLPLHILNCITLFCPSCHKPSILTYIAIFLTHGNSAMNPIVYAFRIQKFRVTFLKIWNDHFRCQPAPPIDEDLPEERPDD

[9] = target: D(1A) dopamine receptor (Homo sapiens) (UniProt P21728); assay: Inhibition of human dopamine D1 receptor at 10 uM relative to control
[10] = target: Sodium-dependent noradrenaline transporter (Homo sapiens) (UniProt P23975); assay: Inhibition of human norepinephrine transporter at 10 uM relative to control
[11] = Volume of distribution at steady state in Sprague-Dawley rat at 0.5 mg/kg, iv; format: ADME, organism-based; set-up: dose 0.5 mg/kg, route intravenous; conditions: in vivo, read-out: Vdss
[12] = target: T4, Thyrotropin-releasing hormone receptor (Homo sapiens) (UniProt P34981); assay: Inhibition of human TRH1 receptor at 10 uM relative to control
T4 sequence (whole entry): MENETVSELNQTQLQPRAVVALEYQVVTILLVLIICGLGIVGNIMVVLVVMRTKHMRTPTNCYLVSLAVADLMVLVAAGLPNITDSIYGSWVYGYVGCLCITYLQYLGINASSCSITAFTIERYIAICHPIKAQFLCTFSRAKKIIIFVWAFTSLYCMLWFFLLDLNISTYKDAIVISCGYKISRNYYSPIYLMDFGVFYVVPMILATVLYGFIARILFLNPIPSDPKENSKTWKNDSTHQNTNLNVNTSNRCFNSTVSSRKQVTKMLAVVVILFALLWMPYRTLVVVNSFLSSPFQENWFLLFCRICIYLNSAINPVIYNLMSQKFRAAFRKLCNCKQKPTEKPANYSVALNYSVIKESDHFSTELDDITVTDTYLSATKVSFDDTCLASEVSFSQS

Mus musculus [13] = assay: Antidiabetic activity in high-fat diet fed streptozotocin-induced C57BL/6J mouse at 60 mg/kg, po by oral glucose tolerance test; format: functional, organism-based; set-up: dose 60 mg/kg
[14] = Clearance in Sprague-Dawley rat at 0.5 mg/kg, iv; format: ADME, organism-based; set-up: dose 0.5 mg/kg, route intravenous; conditions: in vivo
Pancreatic islet [15] = assay: Potentiation of glucose-stimulated insulin secretion in human pancreatic islets at 0.01 uM to 10 uM; format: functional
[16] = Oral bioavailability in cynomolgus monkey at 2 mg/kg; format: ADME, organism-based, Macaca fascicularis; conditions: in vivo
[17] = Half life in cynomolgus monkey at 0.5 mg/kg, iv; format: ADME, organism-based, Macaca fascicularis; set-up: dose 0.5 mg/kg, route intravenous; conditions: in vivo
[18] = target: Free fatty acid receptor 1 (Rattus norvegicus) (UniProt Q8K3T4); assay: Agonist activity at FFA1 receptor in Sprague-Dawley rat fetal intestinal cells assessed as stimulation of GLP1 secretion after 1 hr by ELISA
Pancreatic islet [19] = assay: Potentiation of glucose-stimulated insulin secretion in mouse pancreatic islets at 0.01 uM to 10 uM; format: functional
[20] = target: Free fatty acid receptor 1 (Rattus norvegicus) (UniProt Q8K3T4); assay: Agonist activity at FFA1 receptor in Sprague-Dawley rat fetal intestinal cells assessed as stimulation of GIP secretion after 1 hr by ELISA relative to AM-1638
[21] = target: T1, Free fatty acid receptor 1; assay: Positive cooperativite binding to human FFA1 receptor expressed in CHO cell membranes assessed as enhancement of specific binding of [3H]AMG 837 by reciprocal competition assay
[22] = Half life in Sprague-Dawley rat at 0.5 mg/kg, iv; format: ADME, organism-based; set-up: dose 0.5 mg/kg, route intravenous; conditions: in vivo
Mus musculus [23] = assay: Antidiabetic activity in high-fat diet fed streptozotocin-induced C57BL/6J mouse assessed as improvement in glucose AUC at 30 mg/kg, po by oral glucose tolerance test relative to control; format: functional
[24] = Clearance in cynomolgus monkey at 0.5 mg/kg, iv; format: ADME, organism-based, Macaca fascicularis; set-up: dose 0.5 mg/kg, route intravenous; conditions: in vivo
Mus musculus [25] = assay: Antidiabetic activity in high-fat diet fed streptozotocin-induced C57BL/6J mouse assessed as increase in insulin secretion at 30 mg/kg, po by oral glucose tolerance test; format: functional, organism-based; set-up: dose 30 mg/kg
[26] = target: Free fatty acid receptor 1 (Rattus norvegicus) (UniProt Q8K3T4); assay: Agonist activity at FFA1 receptor in Sprague-Dawley rat fetal intestinal cells assessed as stimulation of GIP secretion after 1 hr by ELISA
[27] = target: Free fatty acid receptor 1 (Rattus norvegicus) (UniProt Q8K3T4); assay: Agonist activity at FFA1 receptor in Sprague-Dawley rat fetal intestinal cells assessed as stimulation of GLP1 secretion after 1 hr by ELISA relative to AM-1638

Sequence of Free fatty acid receptor 1 (Rattus norvegicus) (Q8K3T4 whole entry): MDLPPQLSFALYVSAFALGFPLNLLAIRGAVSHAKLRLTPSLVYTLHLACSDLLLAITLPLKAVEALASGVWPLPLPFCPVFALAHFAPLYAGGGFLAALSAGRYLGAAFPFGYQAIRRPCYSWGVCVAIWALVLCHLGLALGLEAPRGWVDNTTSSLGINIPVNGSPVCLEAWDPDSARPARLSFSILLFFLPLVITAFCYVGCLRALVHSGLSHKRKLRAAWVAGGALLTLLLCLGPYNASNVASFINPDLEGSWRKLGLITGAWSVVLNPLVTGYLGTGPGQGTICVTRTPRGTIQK
Sequence of Sodium-dependent noradrenaline transporter (Homo sapiens) (P23975 whole entry): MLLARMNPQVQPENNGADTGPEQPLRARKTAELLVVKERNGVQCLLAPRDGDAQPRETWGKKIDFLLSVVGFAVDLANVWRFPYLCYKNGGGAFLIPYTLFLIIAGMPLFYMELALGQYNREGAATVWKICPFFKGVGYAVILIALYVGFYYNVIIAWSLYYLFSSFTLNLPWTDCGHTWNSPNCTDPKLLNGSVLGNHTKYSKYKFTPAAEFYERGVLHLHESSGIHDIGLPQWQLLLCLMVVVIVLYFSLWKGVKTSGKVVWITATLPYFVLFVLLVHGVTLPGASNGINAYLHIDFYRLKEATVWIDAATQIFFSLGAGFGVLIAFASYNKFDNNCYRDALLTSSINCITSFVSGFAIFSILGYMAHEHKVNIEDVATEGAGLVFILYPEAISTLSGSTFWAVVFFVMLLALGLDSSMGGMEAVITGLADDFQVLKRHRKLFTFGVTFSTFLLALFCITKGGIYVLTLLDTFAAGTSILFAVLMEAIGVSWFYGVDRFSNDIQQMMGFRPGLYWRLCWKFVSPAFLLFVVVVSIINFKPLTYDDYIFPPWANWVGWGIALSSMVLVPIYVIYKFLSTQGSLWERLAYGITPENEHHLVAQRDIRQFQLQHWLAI
Sequence of D(1A) dopamine receptor (Homo sapiens) (P21728 whole entry): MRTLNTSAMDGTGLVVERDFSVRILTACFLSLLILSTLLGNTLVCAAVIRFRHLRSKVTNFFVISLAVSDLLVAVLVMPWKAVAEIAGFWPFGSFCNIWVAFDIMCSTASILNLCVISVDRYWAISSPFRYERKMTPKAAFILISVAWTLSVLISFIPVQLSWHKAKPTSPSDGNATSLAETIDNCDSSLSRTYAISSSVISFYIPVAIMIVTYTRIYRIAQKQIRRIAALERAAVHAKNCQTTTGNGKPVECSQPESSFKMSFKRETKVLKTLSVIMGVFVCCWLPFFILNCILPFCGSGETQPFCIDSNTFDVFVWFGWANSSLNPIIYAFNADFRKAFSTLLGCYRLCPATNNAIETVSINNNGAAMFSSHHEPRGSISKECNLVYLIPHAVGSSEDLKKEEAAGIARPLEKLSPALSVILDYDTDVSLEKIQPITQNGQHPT
T1 sequence (O14842 whole entry): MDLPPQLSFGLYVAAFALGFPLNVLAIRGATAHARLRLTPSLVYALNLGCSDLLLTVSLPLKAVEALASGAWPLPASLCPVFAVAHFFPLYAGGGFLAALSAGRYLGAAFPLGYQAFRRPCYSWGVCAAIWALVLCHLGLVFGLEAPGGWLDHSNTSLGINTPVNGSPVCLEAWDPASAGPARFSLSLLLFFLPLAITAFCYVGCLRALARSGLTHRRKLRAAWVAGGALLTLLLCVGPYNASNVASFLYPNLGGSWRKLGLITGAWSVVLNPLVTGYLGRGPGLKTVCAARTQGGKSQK
Sequence of Kappa-type opioid receptor (Rattus norvegicus) (P34975 whole entry): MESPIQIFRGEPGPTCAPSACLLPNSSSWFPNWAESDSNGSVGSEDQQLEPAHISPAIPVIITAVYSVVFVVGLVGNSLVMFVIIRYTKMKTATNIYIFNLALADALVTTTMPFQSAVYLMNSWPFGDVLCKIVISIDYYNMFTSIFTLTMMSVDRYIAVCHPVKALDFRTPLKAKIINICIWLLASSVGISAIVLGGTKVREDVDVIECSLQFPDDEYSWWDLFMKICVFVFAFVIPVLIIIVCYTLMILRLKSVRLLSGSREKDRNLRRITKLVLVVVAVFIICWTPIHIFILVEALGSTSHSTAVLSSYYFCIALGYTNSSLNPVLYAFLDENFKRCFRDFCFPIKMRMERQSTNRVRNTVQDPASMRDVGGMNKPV

Structure (SMILES): COc1ccc(F)c(-c2ccc(COc3ccc4c(c3)[C@]3(CC4)C[C@H]3C(=O)O)cc2[C@H]2CCCC2(C)C)c1
EC50 [1]: 0.212 µM | Emax [2]: 104%

Structure (SMILES): COc1ccc(F)c(-c2ccc(COc3ccc4c(c3)[C@]3(CC4)CC[C@H]3C(=O)O)cc2C2=CCCC2(C)C)c1
EC50 [1]: 0.52 µM | Emax [2]: 92%

Structure (SMILES): COc1ccc(F)c(-c2ccc(COc3ccc4c(c3)[C@H]3[C@@H](C4)[C@H]3C(=O)O)cc2C2=CCCC2(C)C)c1
EC50 [1]: > 30 µM | Emax [2]: 17%

Structure (SMILES): COc1ccc(F)c(-c2ccc(COc3ccc4c(c3)[C@@H]3[C@H](C4)[C@@H]3C(=O)O)cc2C2=CCCC2(C)C)c1
EC50 [1]: > 30 µM | Emax [2]: 10%

Structure (SMILES): COc1ccc(F)c(-c2ccc(COc3ccc4c(c3)[C@]3(CC4)C[C@@H]3C(=O)O)cc2C2=CCCC2(C)C)c1
EC50 [1]: > 30 µM | Emax [2]: 5%

Structure (SMILES): COc1ccc(F)c(-c2ccc(COc3cccc([C@@H](CC(=O)O)C4CC4)c3)cc2C2=CCCC2(C)C)c1
inhibition [3]: > 70% | bioavailability [4]: 15% | inhibition [5]: > 70% | inhibition [6]: > 70% | Vd [7]: 2 L/kg | inhibition [8]: > 70% | inhibition [9]: > 70% | inhibition [10]: > 70% | Vd [11]: 1.1 L/kg | inhibition [12]: > 70% | Activity (Mus musculus [13]): Active

Structure (SMILES): COc1ccc(F)c(-c2ccc(COc3ccc4c(c3)[C@H]3[C@@H](C4)[C@@H]3C(=O)O)cc2C2=CCCC2(C)C)c1
EC50 [1]: 1.42 µM | Emax [2]: 99%

Structure (SMILES): COc1ccc(F)c(-c2ccc(COc3ccc4c(c3)[C@@]3(CC4)C[C@@H]3C(=O)O)cc2C2=CCCC2(C)C)c1
EC50 [1]: > 30 µM | Emax [2]: 12%

Structure (SMILES): COc1ccc(F)c(-c2ccc(COc3ccc4c(c3)[C@]3(CCC4)CC[C@H]3C(=O)O)cc2C2=CCCC2(C)C)c1
EC50 [1]: 0.35 µM | Emax [2]: 83%

Structure (SMILES): COc1ccc(F)c(-c2ccc(COc3ccc4c(c3)[C@@]3(CC4)C[C@H]3C(=O)O)cc2C2=CCCC2(C)C)c1
EC50 [1]: 3.78 µM | Emax [2]: 27%

Structure (SMILES): COc1ccc(F)c(-c2ccc(COc3ccc4c(c3)[C@@H]3[C@H](C4)[C@H]3C(=O)O)cc2C2=CCCC2(C)C)c1
EC50 [1]: > 30 µM | Emax [2]: 15%

Continued, in another order:

EC50 [1]: 0.15 µM | Emax [2]: 98%
Structure (SMILES): COc1ccc(F)c(-c2ccc(COc3ccc4c(c3)[C@]3(CCC4)C[C@H]3C(=O)O)cc2C2=CCCC2(C)C)c1

inhibition [3]: < 70% | clearance [14]: 4.17 mL/min/kg | EC50 [1]: 0.081 µM | bioavailability [4]: 28% | bioavailability [16]: 69% | half-life [17]: 2.2 h | inhibition [5]: < 70% | inhibition [6]: < 70% | Activity [18]: Active | Vd [7]: 1.4 L/kg | fold change (FC) [20]: 2 | inhibition [8]: < 70% | inhibition [9]: < 70% | Activity [21]: Active | half-life [22]: 4.2 h | inhibition [10]: < 70% | Vd [11]: 0.7 L/kg | clearance [24]: 14 mL/min/kg | inhibition [12]: < 70% | Emax [2]: 101% | Activity [26]: Active | fold change (FC) [27]: 2
Structure (SMILES): COc1ccc(F)c(-c2ccc(COc3ccc4c(c3)[C@]3(CC4)C[C@H]3C(=O)O)cc2[C@@H]2CCCC2(C)C)c1
Activity (Pancreatic islet [15]): Active | Activity (Pancreatic islet [19]): Active | Activity (Mus musculus [23]): 48% | Activity (Mus musculus [25]): Active

EC50 [1]: 0.098 µM | Emax [2]: 90%
Structure (SMILES): COc1ccc(F)c(-c2ccc(COc3ccc4c(c3F)[C@]3(CCC4)C[C@H]3C(=O)O)cc2[C@@H]2CCCC2(C)C)c1

EC50 [1]: 0.18 µM | Emax [2]: 100%
Structure (SMILES): COc1ccc(F)c(-c2ccc(COc3ccc4c(c3)[C@]3(CC4)C[C@H]3C(=O)O)cc2C2=CCCC2(C)C)c1

inhibition [3]: < 70% | clearance [14]: 2.83 mL/min/kg | EC50 [1]: 0.105 µM | bioavailability [4]: 61% | bioavailability [16]: 44% | half-life [17]: 3.7 h | inhibition [5]: < 70% | inhibition [6]: < 70% | Vd [7]: 0.4 L/kg | inhibition [8]: < 70% | inhibition [9]: < 70% | half-life [22]: 4.1 h | inhibition [10]: < 70% | Vd [11]: 0.8 L/kg | clearance [24]: 1.83 mL/min/kg | inhibition [12]: < 70% | Emax [2]: 90%
Structure (SMILES): COc1cc(-c2ccc(COc3ccc4c(c3F)[C@]3(CCC4)C[C@H]3C(=O)O)cc2[C@@H]2CCCC2(C)C)c(F)cn1

EC50 [1]: 0.092 µM | Emax [2]: 101%
Structure (SMILES): COc1ccc(F)c(-c2ccc(COc3ccc4c(c3)[C@]3(CCC4)C[C@H]3C(=O)O)cc2[C@@H]2CCCC2(C)C)c1
